Results as given in patent publication US8946197B2, “Transglutaminase TG2 inhibitors, pharmaceutical compositions, and methods of use thereof” (CHDI Foundation, Inc., priority 2009, dated 2015).
Several values for one entry are separate records, joined by “and”; a condition that tells them apart may be missing. Identical values can stand only once.

The compounds below were run against T1, human TG2 (Homo sapiens, UniProt P21980) (assay: fluorescent screening assay for human TG2). Settings: 20 nM TG2, 8 μM N,N-dimethylated Casein, 16 μM KxD, pH 7.4, 37° C.
T1 sequence (P21980 1-687): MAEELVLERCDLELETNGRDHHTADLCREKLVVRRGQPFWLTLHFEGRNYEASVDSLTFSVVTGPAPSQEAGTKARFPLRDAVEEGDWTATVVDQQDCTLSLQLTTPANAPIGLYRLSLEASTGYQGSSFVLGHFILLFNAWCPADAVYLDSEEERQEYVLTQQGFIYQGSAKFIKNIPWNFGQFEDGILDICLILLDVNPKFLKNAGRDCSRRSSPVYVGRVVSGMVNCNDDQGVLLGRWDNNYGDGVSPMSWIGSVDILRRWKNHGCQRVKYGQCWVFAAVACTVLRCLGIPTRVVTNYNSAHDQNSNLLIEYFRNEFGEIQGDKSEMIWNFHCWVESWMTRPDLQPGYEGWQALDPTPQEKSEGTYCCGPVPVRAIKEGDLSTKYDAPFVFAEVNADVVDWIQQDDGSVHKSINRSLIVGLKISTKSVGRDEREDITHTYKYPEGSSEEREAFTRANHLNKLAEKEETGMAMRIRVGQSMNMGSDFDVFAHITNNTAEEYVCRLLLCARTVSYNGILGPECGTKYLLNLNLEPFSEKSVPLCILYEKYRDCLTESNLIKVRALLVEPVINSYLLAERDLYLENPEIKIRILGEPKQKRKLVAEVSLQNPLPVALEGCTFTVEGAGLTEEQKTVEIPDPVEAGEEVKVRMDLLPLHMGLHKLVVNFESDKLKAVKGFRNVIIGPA
Assay type: biochemical
Description: (§1) The fluorescent screening assay for human TG2 was performed as described herein: Assay conditions were 20 nM TG2, 8 μM N,N-dimethylated Casein (NMC) and 16 μM K×D (used for all transglutaminase assays) in 25 mM Hepes, pH 7.4, 250 mM NaCl, 2 mM MgCl2, 0.5 mM CaCl2, 0.2 mM DTT, 0.05% Pluronic F-127 at 37° C. A time point was taken with a microplate reader (Safire or Ultra, Tecan; ex: 350 nm, em: 535 nm) every 3 minutes for up to 2 hours and the initial linear reaction progress was used to determine the reaction velocity as a measure for enzyme activity. Assay conditions were identical for human TG6 and similar for human TG1 and mouse TG2 apart from enzyme concentration (mTG2 at 5 nM; TG1 at 10 nM) and CaCl2 concentration (0.2 mM for mTG2; 0.05 mM for TG1). Factor XIIIa was activated using 0.1 μg/μl thrombin (Sigma) in 35 mM Tris pH 8.0 for 20 min at 30° C. and the transamidation reaction was performed with 20 nM Factor XIIIa in 50 mM Tris pH 8.0, 1.25 mM CaCl2, 0.05% Pluronic, 0.2 mM DTT. TG3 was activated with 0.02 μg/μl thrombin under the same conditions as Factor XIIIa and assay conditions were 10 nM TG3 in 50 mM Hepes, pH 8, 20 mM CaCl2, 0.2 mM DTT, 0.05% Pluronic F-127.
as §1, with “A” for “The”
An IC50 of 1000 to 25000 nM was found for `C=CC(=O)Nc1cccc(S(=O)(=O)N2CCN(Cc3ccccc3)CC2)c1` [N-[3-(4-Benzyl-piperazine-1-sulfonyl)-phenyl]-acrylamide] in this work.
In the case of `C=CC(=O)Nc1ccc(S(=O)(=O)N2CCN(c3ncnc4ccsc34)CC2)cc1` [N-[4-(4-Thieno[3,2-d]pyrimidin-4-yl-piperazine-1-sulfonyl)-phenyl]-acrylamide], the IC50 is reported as < 100 nM and 100 to 1000 nM.
In the case of `C=CC(=O)Nc1ccc(S(=O)(=O)N2CCN(C(=O)OCc3cc(F)cc(F)c3)CC2)cc1` [4-(4-Acryloylamino-benzenesulfonyl)-piperazine-1-carboxylic acid 3,5-difluoro-benzyl ester], the IC50 is reported as 100 to 1000 nM and < 100 nM.
An IC50 of 1000 to 25000 nM was found for `C=CC(=O)Nc1ccc(S(=O)(=O)N(C)CCN(C)C(=O)OCc2ccccc2)cc1` [{2-[(4-Acryloylamino-benzenesulfonyl)-methyl-amino]-ethyl}-methyk-carbamic acid benzyl ester] in this work.
An IC50 of 1000 to 25000 nM was found for `C=CC(=O)Nc1ccc(S(=O)(=O)N2CCN(c3cccc(-c4ccccc4)c3)CC2)cc1` [N-[4-(4-Biphenyl-3-yl-piperazine-1-sulfonyl)-phenyl]-acrylamide] in this work.
An IC50 of 1000 to 25000 nM was found for `C=CC(=O)Nc1ccc(S(=O)(=O)N2CCN(C(=O)OC(C)(C)C)CC2)c(C)c1` [4-(4-Acryloylamino-2-methyl-benzenesulfonyl)-piperazine-1-carboxylic acid tert-butyl ester] in this work.
For `C=CC(=O)Nc1ccc(S(=O)(=O)N2CCN(c3nc4ccccc4s3)CC2)cc1` [N-[4-(4-Benzothiazol-2-yl-piperazine-1-sulfonyl)-phenyl]-acrylamide], the IC50 was < 100 nM and 100 to 1000 nM.
`C=CC(=O)Nc1ccc(S(=O)(=O)N2CCN(C(=O)OCc3cccc(Cl)c3)CC2)cc1` [4-(4-Acryloylamino-benzenesulfonyl)-piperazine-1-carboxylic acid 3-chloro-benzyl ester] was tested, and the IC50 was 100 to 1000 nM and < 100 nM.
An IC50 of 1000 to 25000 nM was found for `C=CC(=O)Nc1ccc(S(=O)(=O)N2CCC(N)CC2)cc1` [N-[4-(4-Amino-piperidine-1-sulfonyl)-phenyl]-acrylamide] in this work.
In the case of `C=CC(=O)Nc1ccc(S(=O)(=O)N2CCN(C(=O)OCc3ccc(F)cc3)CC2)cc1` [4-(4-Acryloylamino-benzenesulfonyl)-piperazine-1-carboxylic acid 4-fluoro-benzyl ester], the IC50 is reported as < 100 nM and 100 to 1000 nM.
An IC50 of 1000 to 25000 nM was found for `C=CC(=O)Nc1ccc(S(=O)(=O)N2CCN(Cc3ccc(-c4ccccc4)cc3)CC2)cc1` [N-[4-(4-Biphenyl-4-ylmethyl-piperazine-1-sulfonyl)-phenyl]-acrylamide] in this work.
For `C=CC(=O)Nc1ccc(S(=O)(=O)N2CCN(C(=O)NCc3ccccc3)CC2)cc1` [4-(4-Acryloylamino-benzenesulfonyl)-piperazine-1-carboxylic acid benzylamide], the IC50 was 100 to 1000 nM and < 100 nM.
For `C=CC(=O)Nc1ccc(S(=O)(=O)N2CCN(C(=O)OCc3ccccc3)C(CC(=O)NC3C4CC5CC(C4)CC3C5)C2)cc1` (stereo not shown) [4-(4-Acryloylamino-benzenesulfonyl)-2-(adamantan-2-ylcarbamoylmethyl)-piperazine-1-carboxylic acid benzyl ester], the IC50 was 100 to 1000 nM and < 100 nM.
In the case of `C=CC(=O)Nc1ccc(S(=O)(=O)N2CCC(C(=O)N3CCCCC3)CC2)cc1` [N-{4-[4-(Piperidine-1-carbonyl)-piperidine-1-sulfonyl]-phenyl}-acrylamide], the IC50 is reported as 100 to 1000 nM and < 100 nM.
An IC50 of 1000 to 25000 nM was found for `C=CC(=O)Nc1cccc(S(=O)(=O)N2CCN(CCc3ccccc3)CC2)c1` [N-[3-(4-Phenethyl-piperazine-1-sulfonyl)-phenyl]-acrylamide] in this work.
For `C=CC(=O)Nc1ccc(S(=O)(=O)N2CCN(C(=O)OCc3ccccc3C)CC2)cc1` [4-(4-Acryloylamino-benzenesulfonyl)-piperazine-1-carboxylic acid 2-methyl-benzyl ester], the IC50 was 100 to 1000 nM and < 100 nM.
`C=CC(=O)Nc1ccc(S(=O)(=O)N2CCN(C(=O)OC(C)(C)C)C(c3ccco3)C2)cc1` (stereo not shown) [4-(4-Acryloylamino-benzenesulfonyl)-2-furan-2-yl-piperazine-1-carboxylic acid tert-butyl ester] was tested, and the IC50 was 100 to 1000 nM and < 100 nM.
For `C=CC(=O)Nc1ccc(S(=O)(=O)N2CCN(c3cccc4nc(C)ccc34)CC2)cc1` [N-{4-[4-(2-Methyl-quinolin-5-yl)-piperazine-1-sulfonyl]-phenyl}-acrylamide], the IC50 was < 100 nM and 100 to 1000 nM.
`C=CC(=O)Nc1ccc(S(=O)(=O)N2CCC(N(C)C(=O)OC(C)(C)C)CC2)cc1` [[1-(4-Acryloylamino-benzenesulfonyl)-piperidin-4-yl]-methyl-carbamic acid tert-butyl ester] was tested, and the IC50 was 100 to 1000 nM and < 100 nM.
In the case of `C=CC(=O)Nc1ccc(S(=O)(=O)N2CCN(c3nc(C)cc(C)n3)CC2)cc1` [N-{4-[4-(4,6-Dimethyl-pyrimidin-2-yl)-piperazine-1-sulfonyl]-phenyl}-acrylamide], the IC50 is reported as < 100 nM and 100 to 1000 nM.
In the case of `C=CC(=O)Nc1ccc(S(=O)(=O)N2CCN(C(=O)OC(C)(C)C)[C@@H](C(C)C)C2)cc1` [4-(4-Acryloylamino-benzenesulfonyl)-2-isopropyl-piperazine-1-carboxylic acid tert-butyl ester], the IC50 is reported as 100 to 1000 nM and < 100 nM.
For `C=CC(=O)Nc1ccc(S(=O)(=O)N2CCN(C(=O)N3CCCC4CCCCC43)CC2)cc1` (stereo not shown) [N-{4-[4-(Octahydro-quinoline-1-carbonyl)-piperazine-1-sulfonyl]-phenyl}-acrylamide], the IC50 was 100 to 1000 nM and < 100 nM.
For `C=CC(=O)Nc1ccc(S(=O)(=O)N2CCN(C(=O)C34CC5CC(CC(C5)C3)C4)CC2)cc1` [N-{4-[4-(Adamantane-1-carbonyl)-piperazine-1-sulfonyl]-phenyl}-acrylamide], the IC50 was 100 to 1000 nM and < 100 nM.
In the case of `C=CC(=O)Nc1ccc(S(=O)(=O)N2CCN(C(=O)N3C[C@@H](C)O[C@@H](C)C3)CC2)cc1` [N-{4-[4-(2,6-Dimethyl-morpholine-4-carbonyl)-piperazine-1-sulfonyl]-phenyl}-acrylamide], the IC50 is reported as 100 to 1000 nM and < 100 nM.
In the case of `C=CC(=O)Nc1ccc(S(=O)(=O)N2CCN(C(=O)OCc3ccccc3)C(CC(=O)OC)C2)cc1` (stereo not shown) [4-(4-Acryloylamino-benzenesulfonyl)-2-methoxycarbonylmethyl-piperazine-1-carboxylic acid benzyl ester], the IC50 is reported as 100 to 1000 nM and < 100 nM.
`C=CC(=O)Nc1ccc(S(=O)(=O)N2CCN(c3ncccc3C)CC2)cc1` [N-{4-[4-(3-Methyl-pyridin-2-yl)-piperazine-1-sulfonyl]-phenyl}-acrylamide] was tested, and the IC50 was 100 to 1000 nM and < 100 nM.
An IC50 of 1000 to 25000 nM was found for `C=CC(=O)Nc1cccc(S(=O)(=O)N2CCN(c3ccccc3)CC2)c1` [N-[3-(4-Phenyl-piperazine-1-sulfonyl)-phenyl]-acrylamide] in this work.
For `C=CC(=O)Nc1ccc(S(=O)(=O)N2CCC(C(=O)N(C)c3ccccc3)CC2)cc1` [1-(4-Acryloylamino-benzenesulfonyl)-piperidine-4-carboxylic acid methyl-phenyl-amide], the IC50 was < 100 nM and 100 to 1000 nM.
An IC50 of 1000 to 25000 nM was found for `C=CC(=O)Nc1ccc(S(=O)(=O)N(Cc2ccccc2)Cc2ccc(Cl)cc2)cc1` [N-{4-[Benzyl-(4-chloro-benzyl)-sulfamoyl]-phenyl}-acrylamide] in this work.
In the case of `C=CC(=O)Nc1ccc(S(=O)(=O)N2CCN(C(=O)OCc3cccc(OC)c3OC)CC2)cc1` [4-(4-Acryloylamino-benzenesulfonyl)-piperazine-1-carboxylic acid 2,3-dimethoxy-benzyl ester], the IC50 is reported as 100 to 1000 nM and < 100 nM.
An IC50 of 1000 to 25000 nM was found for `C=CC(=O)Nc1cccc(S(=O)(=O)N2CCN(CCCCc3ccccc3)CC2)c1` [N-{3-[4-(4-Phenyl-butyl)-piperazine-1-sulfonyl]-phenyl}-acrylamide] in this work.
